Like-named read-outs stand apart in the source and are kept apart here.
Tests used:
[1] = test system: caterpillars of the armyworm (Spodoptera frugiperda); experiment: Spodoptera frugiperda test (SPODFR spray treatment); type: in vivo; details: 168 h, read-out: activity in %
Method in brief: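 Maize leaf discs sprayed with compound diluted in emulsifier-containing water (acetone/DMF solvent, alkylaryl polyglycol ether emulsifier), dried, then infested with armyworm caterpillars. Kill scored after 7 days as % mortality, 100% = all caterpillars dead, 0% = none.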

[2] = log P determination by HPLC on reversed-phase columns (EEC Directive 79/831 Annex V.A8); type: physicochemical; details: pH 2.7
Method in brief: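 log P from reversed-phase LC-MS retention at pH 2.7, 0.1% formic acid water/acetonitrile gradient 10–95% acetonitrile. Calibrated against C3–C16 unbranched alkan-2-ones, interpolating linearly between adjacent alkanones.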

[3] = test system: larvae of the mustard beetle (Phaedon cochleariae); experiment: Phaedon test (PHAECO spray treatment); type: in vivo; details: 168 h, read-out: activity in %
Method in brief: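 Compound dissolved in acetone/dimethylformamide with alkylaryl polyglycol ether emulsifier, then diluted with emulsifier-containing water to test concentration for spray treatment of Phaedon cochleariae larvae. Activity scored after 7 days as % larvae killed (100% = all dead, 0% = none).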

[4] = test system: green peach aphid (Myzus persicae); experiment: Myzus test (MYZUPE spray treatment), Use Example 4; type: in vivo; details: 144 h, read-out: activity in %
Protocol: Solvents: 78 parts by weight of acetone • • 1.5 parts by weight of dimethylformamide
Emulsifier: 0.5 part by weight of alkylaryl polyglycol ether
An appropriate preparation of active compound is prepared by mixing 1 part by weight of active compound with the stated amounts of solvents and emulsifier and diluting the concentrate with emulsifier-containing water to the desired concentration.
Leaf discs of Chinese cabbage (Brassica pekinensis) infested by all stages of the green peach aphid (Myzus persicae) are sprayed with a preparation of active compound at the desired concentration.
After 6 days, the activity in % is ascertained. Here, 100% means that all of the aphids have been killed; 0% means that no aphids have been killed.

[5] = reversed-phase C18 HPLC column, HPLC on reversed-phase columns (C 18), EEC Directive 79/831 Annex V.A8, read-out: logP
[6] = HPLC on reversed-phase columns (C 18), EEC Directive 79/831 Annex V.A8, read-out: logP

| SMILES | pest or weed control at 100 g/ha ([1]; 100 g/ha, after 7 days) [%] | chromatographic logP [2] | pest or weed control at 100 g/ha ([3]; 100 g/ha, after 7 days) [%] | pest or weed control at 100 g/ha ([4]; 100 g/ha, after 6 days) [%] | chromatographic logP [2, 5] | pest or weed control at 100 g/ha [1] [%] | chromatographic logP [2, 6] | pest or weed control at 100 g/ha [3] [%] | pest or weed control at 100 g/ha [4] [%] |
| --- | --- | --- | --- | --- | --- | --- | --- | --- | --- |
| Cc1cc(Cl)cc(C(=O)NCC2CC2)c1NC(=O)c1cc(Cn2ncc(C(F)(F)C(F)(F)F)n2)nn1-c1ncccc1Cl [Example 349] | 100 | 3.96 | 100 | 80 |  |  |  |  |  |
| CSC[C@H](C)NC(=O)c1cc(Cl)cc(C)c1NC(=O)c1cc(Cn2cc(C(F)(C(F)(F)F)C(F)(F)F)nn2)nn1-c1ncccc1Cl [Example 230] | 100 |  | 100 | 80 | 4.04 |  |  |  |  |
| Cc1cc(Cl)cc(C(=O)NC(C)C)c1NC(=O)c1cc(Cn2ncc(C(F)(F)C(F)(F)F)n2)nn1-c1ncccc1Cl [Example 361] | 100 | 3.89 | 100 | 80 |  |  |  |  |  |
| Cc1cc(Cl)cc(C(=O)NC(C)C)c1NC(=O)c1cc(Cn2ncc(C(F)(F)F)n2)nn1-c1ncccc1Cl [Example 139] | 100 | 3.48 | 100 | 90 |  |  |  |  |  |
| Cc1cc(I)cc(C(N)=O)c1NC(=O)c1cc(Cn2cc(C(F)(F)C(F)(F)F)nn2)nn1-c1ncccc1Cl [Example 315] | 100 | 2.98 | 100 | 90 |  |  |  |  |  |
| CNC(=O)c1cc(C#N)cc(C)c1NC(=O)c1cc(Cn2cc(C(F)(F)F)nn2)nn1-c1ccccc1Cl [Example 293] | 100 |  | 100 | 80 | 2.63 |  |  |  |  |
| Cc1cc(C#N)cc(C(=O)NC(C)C2CC2)c1NC(=O)c1cc(Cn2cc(C(F)(F)F)nn2)nn1-c1ncccc1Cl (stereo not drawn) [Example 178] | 100 | 2.95 | 100 | 100 |  |  |  |  |  |
| CSC[C@H](C)NC(=O)c1cc(Cl)cc(C)c1NC(=O)c1cc(Cn2cc(C(F)(F)C(F)(F)F)nn2)nn1-c1ncccc1Cl [Example 307] | 100 | 3.66 | 100 | 100 |  |  |  |  |  |
| Cc1cc(I)cc(C(=O)NCC2CC2)c1NC(=O)c1cc(Cn2cc(C(F)(F)C(F)(F)F)nn2)nn1-c1ncccc1Cl [Example 314] | 100 | 3.8 | 100 | 80 |  |  |  |  |  |
| Cc1cc(Cl)cc(C(=O)NC(C)C2CC2)c1NC(=O)c1cc(Cn2cc(C(F)(F)C(F)(F)F)nn2)nn1-c1ncccc1Cl (stereo not drawn) [Example 300] | 100 | 3.79 | 100 | 90 |  |  |  |  |  |
| CCNC(=O)c1cc(C#N)cc(C)c1NC(=O)c1cc(Cn2ncc(C(F)(F)F)n2)nn1-c1ccccc1Cl [Example 288] | 100 |  | 100 | 100 | 3.3 |  |  |  |  |
| Cc1cc(Cl)cc(C(=O)NCC#N)c1NC(=O)c1cc(Cn2ncc(C(F)(F)F)n2)nn1-c1ncccc1Cl [Example 143] | 100 | 2.97 | 100 | 100 |  |  |  |  |  |
| Cc1cc(C#N)cc(C(=O)NC(C)C)c1NC(=O)c1cc(Cn2cc(C(F)(F)C(F)(F)C(F)(F)F)nn2)nn1-c1ncccc1Cl [Example 329] |  |  |  |  |  | 100 | 3.42 | 100 | 100 |
| Cc1cc(C#N)cc(C(=O)NC(C)C)c1NC(=O)c1cc(Cn2cc(C(F)(F)F)nn2)nn1-c1ncccc1Br [Example 6] | 100 |  | 100 | 90 | 3.11 |  |  |  |  |
| CSC[C@H](C)NC(=O)c1cc(C#N)cc(C)c1NC(=O)c1cc(Cn2cc(C(F)(C(F)(F)F)C(F)(F)F)nn2)nn1-c1ncccc1Cl [Example 222] | 100 |  | 100 | 100 | 3.63 |  |  |  |  |
| Cc1cc(I)cc(C(N)=O)c1NC(=O)c1cc(Cn2ncc(C(F)(F)F)n2)nn1-c1ncccc1Cl [Example 156] | 100 | 2.89 | 100 | 100 |  |  |  |  |  |
| Cc1cc(Cl)cc(C(=O)NC(C)(C)C)c1NC(=O)c1cc(Cn2cc(C(F)(F)C(F)(F)C(F)(F)F)nn2)nn1-c1ncccc1Cl [Example 339] |  |  |  |  |  | 100 | 4.21 | 100 | 90 |
| Cc1cc(Cl)cc(C(N)=O)c1NC(=O)c1cc(Cn2cc(C(F)(F)C(F)(F)F)nn2)nn1-c1ncccc1Cl [Example 306] | 100 | 2.78 | 100 | 100 |  |  |  |  |  |
| Cc1cc(C#N)cc(C(=O)NC(C)C)c1NC(=O)c1cc(Cn2ncc(C(F)(F)F)n2)nn1-c1ccccc1Cl [Example 286] | 100 |  | 100 | 80 | 3.59 |  |  |  |  |
| CSC[C@H](C)NC(=O)c1cc(Cl)cc(Cl)c1NC(=O)c1cc(Cn2cc(C(F)(C(F)(F)F)C(F)(F)F)nn2)nn1-c1ncccc1Cl [Example 246] | 100 |  | 100 | 80 | 4.02 |  |  |  |  |
| Cc1cc(Cl)cc(C(=O)NC(C)C)c1NC(=O)c1cc(Cn2cc(C(F)(F)C(F)(F)C(F)(F)F)nn2)nn1-c1ncccc1Cl [Example 340] |  |  |  |  |  | 100 | 3.8 | 100 | 100 |
| CNC(=O)c1cc(Cl)cc(C)c1NC(=O)c1cc(Cn2ncc(C3CC3)n2)nn1-c1ncccc1Cl [Example 21] | 100 | 2.85 | 100 | 100 |  |  |  |  |  |
| CNC(=O)c1cc(Cl)cc(C)c1NC(=O)c1cc(Cn2cc(C(F)(F)C(F)(F)F)nn2)nn1-c1ncccc1Cl [Example 299] | 100 | 3.02 | 100 | 80 |  |  |  |  |  |
| Cc1cc(Cl)cc(C(=O)NC2CC2)c1NC(=O)c1cc(Cn2nccn2)nn1-c1ncccc1Cl [Example 120] | 100 | 2.26 | 100 | 90 |  |  |  |  |  |
| CNC(=O)c1cc(C#N)cc(C)c1NC(=O)c1cc(Cn2cc(C(F)(F)F)nn2)nn1-c1ncccc1Br [Example 5] | 100 |  | 100 | 100 | 2.66 |  |  |  |  |
| Cc1cc(I)cc(C(=O)NC(C)C)c1NC(=O)c1cc(Cn2cc(C(F)(F)C(F)(F)F)nn2)nn1-c1ncccc1Cl [Example 312] | 100 | 3.73 | 100 | 80 |  |  |  |  |  |
| Cc1cc(C#N)cc(C(=O)NC(C)C)c1NC(=O)c1cc(Cn2ncc(C(F)(F)C(F)(F)F)n2)nn1-c1ncccc1Cl [Example 364] | 100 | 3.52 | 100 | 100 |  |  |  |  |  |

Source: patent US8536202B2, “Triazole-substituted anthranilamides as pesticides” (Bayer Cropscience AG, priority 2010, dated 2013)
